Calls of active or inactive are those of the source.
Tests used:
[1] = tested on: Candida tropicalis; test: Antifungal activity against 2 x 10^7 CFU/ml Candida tropicalis isolate 11 in antibiotic medium 3 after 24 hrs by broth microdilution method; assay type: functional; settings: isolate 11, 24 h
[2] = tested on: Candida tropicalis; test: Fungicidal activity against Candida tropicalis isolate 15 at =< 3.12 ug/ml after 24 to 48 hrs by time-kill assay; assay type: functional, organism-based
[3] = tested on: Candida tropicalis; test: Antifungal activity against 10^5 CFU/ml Candida tropicalis clinical isolate in RPMI 1640 medium treated for 24 hrs followed by incubation in drug free medium for 48 hrs by broth microdilution method; assay type: functional, organism-based
[4] = tested on: Candida tropicalis; test: Antifungal activity against Candida tropicalis isolate 4 in RPMI 1640 medium assessed as paradoxical growth at 12.5 ug/ml after 48 hrs by broth microdilution method; assay type: functional, organism-based
[5] = tested on: Candida tropicalis; test: Antifungal activity against Candida tropicalis isolate 6 in RPMI 1640 medium assessed as paradoxical growth at 12.5 ug/ml after 48 hrs by broth microdilution method; assay type: functional, organism-based
[6] = tested on: Candida tropicalis; test: Antifungal activity against 2 x 10^7 CFU/ml Candida tropicalis isolate 8 in antibiotic medium 3 after 24 hrs by broth microdilution method; assay type: functional; settings: isolate 8, 24 h
[7] = tested on: Candida tropicalis; test: Antifungal activity against 10^5 CFU/ml Candida tropicalis isolate 9 in RPMI 1640 medium at 12.5 ug/ml treated for 24 hrs followed by incubation in drug free medium for 48 hrs by broth microdilution method; assay type: functional, organism-based
[8] = tested on: Candida tropicalis; test: Antifungal activity against 2 x 10^7 CFU/ml Candida tropicalis isolate 3 in RPMI 1640 medium after 24 hrs by broth microdilution method; assay type: functional; settings: isolate 3, 24 h
[9] = tested on: Candida tropicalis; test: Antifungal activity against > 2 x 10^7 CFU/ml Candida tropicalis isolate 1 in RPMI 1640 medium assessed as partial growth after 24 hrs by broth microdilution method; assay type: functional, organism-based
[10] = tested on: Candida tropicalis; test: Antifungal activity against > 2 x 10^7 CFU/ml Candida tropicalis isolate 3 in antibiotic medium 3 assessed as partial growth after 24 hrs by broth microdilution method; assay type: functional, organism-based
[11] = tested on: Candida tropicalis; test: Antifungal activity against 10^5 CFU/ml Candida tropicalis isolate 7 in RPMI 1640 medium at =< 0.09 ug/ml after 24 hrs followed by incubation in drug free medium for 48 hrs by broth microdilution method; assay type: functional, organism-based
[12] = tested on: Candida tropicalis; test: Antifungal activity against 10^5 CFU/ml Candida tropicalis isolate 13 in RPMI 1640 medium at 12.5 ug/ml treated for 48 hrs followed by incubation in drug free medium for 48 hrs by broth microdilution method; assay type: functional, organism-based
[13] = tested on: Candida tropicalis; test: Antifungal activity Candida tropicalis isolate 4 in RPMI 1640 medium at 0.19 to 6.25 ug/ml after 24 hrs by time-kill assay; assay type: functional, organism-based
[14] = tested on: Candida tropicalis; test: Antifungal activity against > 2 x 10^7 CFU/ml Candida tropicalis isolate 5 in RPMI 1640 medium assessed as partial growth after 24 hrs by broth microdilution method; assay type: functional, organism-based
[15] = tested on: Candida tropicalis; test: Antifungal activity against 2 x 10^7 CFU/ml Candida tropicalis isolate 1 in RPMI 1640 medium after 24 hrs by broth microdilution method; assay type: functional; settings: isolate 1, 24 h
[16] = tested on: Candida tropicalis; test: Antifungal activity against > 2 x 10^7 CFU/ml Candida tropicalis isolate 7 in RPMI 1640 medium assessed as partial growth after 24 hrs by broth microdilution method; assay type: functional, organism-based
[17] = tested on: Candida tropicalis; test: Antifungal activity Candida tropicalis isolate 4 in RPMI 1640 medium at 12.5 ug/ml after 24 hrs by time-kill assay; assay type: functional, organism-based
[18] = tested on: Candida tropicalis; test: Antifungal activity against Candida tropicalis isolate 1 in antibiotic medium 3 assessed as paradoxical growth at 12.5 ug/ml after 24 hrs by broth microdilution method; assay type: functional, organism-based
[19] = tested on: Candida tropicalis; test: Antifungal activity against 10^5 CFU/ml Candida tropicalis isolate 11 in RPMI 1640 medium at 12.5 ug/ml treated for 48 hrs followed by incubation in drug free medium for 48 hrs by broth microdilution method; assay type: functional, organism-based
[20] = tested on: Candida tropicalis; test: Antifungal activity against Candida tropicalis isolate 15 in RPMI 1640 medium assessed as paradoxical growth at 12.5 ug/ml after 24 hrs by broth microdilution method; assay type: functional, organism-based
[21] = tested on: Candida tropicalis; test: Antifungal activity against > 2 x 10^7 CFU/ml Candida tropicalis isolate 9 in antibiotic medium 3 assessed as partial growth after 24 hrs by broth microdilution method; assay type: functional, organism-based
[22] = tested on: Candida tropicalis; test: Antifungal activity against 2 x 10^7 CFU/ml Candida tropicalis isolate 7 in antibiotic medium 3 after 24 hrs by broth microdilution method; assay type: functional; settings: isolate 7, 24 h
[23] = tested on: Candida tropicalis; test: Antifungal activity against Candida tropicalis clinical isolate in antibiotic medium 3 assessed as paradoxical growth-related change in CFU treated for 24 hrs by time-kill assay; assay type: functional
[24] = tested on: Candida tropicalis; test: Antifungal activity against 10^5 CFU/ml Candida tropicalis isolate 13 in RPMI 1640 medium at 12.5 ug/ml treated for 24 hrs followed by incubation in drug free medium for 48 hrs by broth microdilution method; assay type: functional, organism-based
[25] = tested on: Candida tropicalis; test: Antifungal activity against 10^5 CFU/ml Candida tropicalis isolate 5 in RPMI 1640 medium at =< 0.09 ug/ml after 24 hrs followed by incubation in drug free medium for 48 hrs by broth microdilution method; assay type: functional, organism-based
[26] = tested on: Candida tropicalis; test: Antifungal activity against 10^5 CFU/ml Candida tropicalis clinical isolates in RPMI 1640 medium at 6.25 ug/ml after 48 hrs followed by incubation in drug free medium for 48 hrs by broth microdilution method; assay type: functional, organism-based
[27] = tested on: Candida tropicalis; test: Antifungal activity against > 2 x 10^7 CFU/ml Candida tropicalis isolate 1 in antibiotic medium 3 assessed as partial growth after 24 hrs by broth microdilution method; assay type: functional, organism-based
[28] = tested on: Candida tropicalis; test: Antifungal activity against > 2 x 10^7 CFU/ml Candida tropicalis isolate 13 in RPMI 1640 medium assessed as partial growth after 24 hrs by broth microdilution method; assay type: functional, organism-based
[29] = tested on: Candida tropicalis; test: Antifungal activity against 2 x 10^7 CFU/ml Candida tropicalis isolate 10 in RPMI 1640 medium after 24 hrs by broth microdilution method; assay type: functional; settings: isolate 10, 24 h
[30] = tested on: Candida tropicalis; test: Antifungal activity against 10^5 CFU/ml Candida tropicalis isolate 15 in RPMI 1640 medium at 12.5 ug/ml treated for 48 hrs followed by incubation in drug free medium for 48 hrs by broth microdilution method; assay type: functional, organism-based
[31] = tested on: Candida tropicalis; test: Antifungal activity against 2 x 10^7 CFU/ml Candida tropicalis isolate 10 in antibiotic medium 3 after 24 hrs by broth microdilution method; assay type: functional; settings: isolate 10, 24 h
[32] = tested on: Candida tropicalis; test: Antifungal activity against 10^5 CFU/ml Candida tropicalis isolate 6 in RPMI 1640 medium at =< 0.09 ug/ml after 24 hrs by followed by incubation in drug free medium for 48 hrs broth microdilution method; assay type: functional, organism-based
[33] = tested on: Candida tropicalis; test: Antifungal activity against > 2 x 10^7 CFU/ml Candida tropicalis isolate 14 in antibiotic medium 3 assessed as partial growth after 24 hrs by broth microdilution method; assay type: functional, organism-based
[34] = tested on: Candida tropicalis; test: Antifungal activity against 10^5 CFU/ml Candida tropicalis isolate 14 in RPMI 1640 medium at =< 0.09 ug/ml after 24 hrs followed by incubation in drug free medium for 48 hrs by broth microdilution method; assay type: functional, organism-based
[35] = tested on: Candida tropicalis; test: Antifungal activity against Candida tropicalis ATCC 750 in RPMI 1640 medium assessed as paradoxical growth at 6.25 ug/ml after 48 hrs by broth microdilution method; assay type: functional, organism-based
[36] = tested on: Candida tropicalis; test: Antifungal activity against > 2 x 10^7 CFU/ml Candida tropicalis isolate 15 in RPMI 1640 medium assessed as partial growth after 24 hrs by broth microdilution method; assay type: functional, organism-based

CC[C@H](C)C[C@H](C)CCCCCCCCC(=O)N[C@H]1C[C@@H](O)[C@@H](NCCN)NC(=O)[C@@H]2[C@@H](O)CCN2C(=O)[C@H]([C@H](O)CCN)NC(=O)[C@H]([C@H](O)[C@@H](O)c2ccc(O)cc2)NC(=O)[C@@H]2C[C@@H](O)CN2C(=O)[C@H]([C@@H](C)O)NC1=O [CASPOFUNGIN]
active: Activity [2] | Activity [3] | Activity [11] | Activity [13] | Activity [25] | Activity [32] | Activity [34] | Activity [35]
0.36 log10CFU/ml: Activity [23]
0.024 µg/mL: MIC [1] | MIC [6] | MIC [8] | MIC [15] | MIC [22] | MIC [29] | MIC [31]
inactive: Activity [4] | Activity [5] | Activity [7] | Activity [9] | Activity [10] | Activity [12] | Activity [14] | Activity [16] | Activity [17] | Activity [18] | Activity [19] | Activity [20] | Activity [21] | Activity [24] | Activity [26] | Activity [27] | Activity [28] | Activity [30] | Activity [33] | Activity [36]

Reference: ChEMBL document CHEMBL1153550, “In vitro study of Candida tropicalis isolates exhibiting paradoxical growth in the presence of high concentrations of caspofungin” (2007)
